Counter-ions that a name gives are not always drawn.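 Assay format: 96-well plates, 48-hour exposure. The concentration for 50% growth inhibition is given as GI50.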 Calls of active or inactive are those of the source. Rule as the data show it: active = GI50 up to about 1.1 µM and inactive = higher. Non-standard residues stand in square brackets, D forms with d. Residues, ends and D or L forms follow the SMILES beside them. ξ: configuration not given here. *: point of attachment. dThr(3ξ) = CC(O)[C@@H](N)C(=O)O; dNMeL = CN[C@H](CC(C)C)C(=O)O; OBn = c1ccc(CO*)cc1; ξLac = CC(O)C(=O)O
What was measured:
Assay in all cases: NCI tumour cell line growth inhibition, 48 h
NCI-H23 = test system: NCI-H23
MDA-MB-435 = test system: MDA-MB-435
HT-29 = test system: HT-29
SF-539 = test system: SF-539
RPMI-8226 = test system: RPMI-8226
BT-549 = test system: BT-549
ACHN = test system: ACHN
U-251 = test system: U-251
M14 = test system: M14
DU-145 = test system: DU-145
SK-OV-3 = test system: SK-OV-3
MOLT-4 = test system: MOLT-4
Hs-578T = test system: Hs-578T
HOP-92 = test system: HOP-92
LOX IMVI = test system: LOX IMVI
HOP-62 = test system: HOP-62
NCI-H522 = test system: NCI-H522
MCF7 = test system: MCF7
786-0 = test system: 786-0
UACC-257 = test system: UACC-257

SMILES	GI50 (NCI-H23)	GI50 (MDA-MB-435)	GI50 (HT-29)	GI50 (SF-539)	GI50 (RPMI-8226)	GI50 (BT-549)	GI50 (ACHN)	GI50 (U-251)	GI50 (M14)	GI50 (DU-145)	GI50 (SK-OV-3)	GI50 (MOLT-4)	GI50 (Hs-578T)	GI50 (HOP-92)	GI50 (LOX IMVI)	GI50 (HOP-62)	GI50 (NCI-H522)	GI50 (MCF7)	GI50 (786-0)	GI50 (UACC-257)
O=C1C(c2c(O)[nH]c3ccc(I)cc23)=Nc2ccccc21	5.61 µM (inactive)	12.1 µM (inactive)	7.1 µM (inactive)	5.27 µM (inactive)	9.51 µM (inactive)	7.53 µM (inactive)	3.23 µM (inactive)	2.87 µM (inactive)	14 µM (inactive)	4.74 µM (inactive)	3.97 µM (inactive)	49.2 µM (inactive)	6.78 µM (inactive)	3.24 µM (inactive)	4.88 µM (inactive)	4.7 µM (inactive)	4.2 µM (inactive)	4.07 µM (inactive)	2.02 µM (inactive)	17.9 µM (inactive)
COc1cc2[nH]c(=O)c3cc(-c4ccccc4)cc4c(Cl)nc(c1OC)c2c43	15.3 µM (inactive)	2.81 µM (inactive)	3.92 µM (inactive)	0.63 µM (active)	13.2 µM (inactive)	43.2 µM (inactive)	15.6 µM (inactive)	16.4 µM (inactive)	19.4 µM (inactive)	23.6 µM (inactive)	> 47.8 µM (inactive)	4.63 µM (inactive)	> 100 µM (inactive)	41.8 µM (inactive)	6.78 µM (inactive)	32.6 µM (inactive)	3.77 µM (inactive)	2.36 µM (inactive)	6.59 µM (inactive)	4.69 µM (inactive)
C[C@@H](CC(=O)O)OC1OC(COC(=O)C(C)(C)C)C(OC(=O)C(C)(C)C)C(OC(=O)C(C)(C)C)C1OC(=O)C(C)(C)C (stereo not given in full)	27.2 µM (inactive)	53.3 µM (inactive)	39 µM (inactive)	52.8 µM (inactive)	26.4 µM (inactive)	57 µM (inactive)	22.6 µM (inactive)	40 µM (inactive)	> 100 µM (inactive)	59.6 µM (inactive)	73.6 µM (inactive)	38.6 µM (inactive)	58.7 µM (inactive)	38.1 µM (inactive)	97.3 µM (inactive)	> 100 µM (inactive)	57 µM (inactive)	41.2 µM (inactive)	66.2 µM (inactive)	> 100 µM (inactive)
COc1ccc(C(F)(F)F)cc1NC(=O)O/N=C(/Cl)C(C)C	19.7 µM (inactive)	20.8 µM (inactive)	23.9 µM (inactive)	18.3 µM (inactive)	1.71 µM (inactive)	20.7 µM (inactive)	10.5 µM (inactive)	26.4 µM (inactive)	16.9 µM (inactive)	19.2 µM (inactive)	> 47.5 µM (inactive)	2.05 µM (inactive)	30.4 µM (inactive)	7.33 µM (inactive)	5.27 µM (inactive)	21.6 µM (inactive)	2.26 µM (inactive)	21.2 µM (inactive)	16.9 µM (inactive)	19.7 µM (inactive)
C[C@@]12C=CC3C/C(=N\C(N)=S)C=C(CCCC4OCCO4)[C@]3(CC1)C2 (stereo not given in full)	21.3 µM (inactive)	16.9 µM (inactive)	11.2 µM (inactive)	17.9 µM (inactive)	16.2 µM (inactive)	16.9 µM (inactive)	28.6 µM (inactive)	20.5 µM (inactive)	17.2 µM (inactive)	21 µM (inactive)	49.2 µM (inactive)	9.44 µM (inactive)	28.5 µM (inactive)	34.4 µM (inactive)	17.4 µM (inactive)	29.5 µM (inactive)	6.87 µM (inactive)	10.8 µM (inactive)	19.3 µM (inactive)	18.8 µM (inactive)
O=[N+]([O-])c1ccc(/C=N/n2c(CO)nc3ccccc32)o1	5.42 µM (inactive)	3.4 µM (inactive)	2.8 µM (inactive)	17.9 µM (inactive)	3.43 µM (inactive)	13.6 µM (inactive)	4.25 µM (inactive)	13.9 µM (inactive)	4.17 µM (inactive)	3.27 µM (inactive)	18.2 µM (inactive)	1.1 µM (active)	12.7 µM (inactive)	3.51 µM (inactive)	2.92 µM (inactive)	11.9 µM (inactive)	2.28 µM (inactive)	2.96 µM (inactive)	4.04 µM (inactive)	2.44 µM (inactive)
CC(=O)OCc1ccc2oc(=O)c(C(=O)Oc3cccc(Cl)c3)cc2c1	74.6 µM (inactive)	64.4 µM (inactive)	27.5 µM (inactive)	46.2 µM (inactive)	> 100 µM (inactive)	> 100 µM (inactive)	38.2 µM (inactive)	> 100 µM (inactive)	34.6 µM (inactive)	> 100 µM (inactive)	> 100 µM (inactive)	90.2 µM (inactive)	> 100 µM (inactive)	20.6 µM (inactive)	> 100 µM (inactive)	99.1 µM (inactive)	> 100 µM (inactive)	26.2 µM (inactive)	36.1 µM (inactive)	62.7 µM (inactive)
CC(=O)OC(C)[C@@H](NC(=O)[C@@H](CC(C)C)N(C)C(=O)[C@@H]1CCCN1C(=O)C(C)O)C(=O)OCc1ccccc1 (stereo not given in full) (H-[ξLac]P[dNMeL][dThr(3ξ)](Ac)-OBn)	> 100 µM (inactive)	> 100 µM (inactive)	> 100 µM (inactive)	> 100 µM (inactive)	> 100 µM (inactive)	> 100 µM (inactive)	> 100 µM (inactive)	> 100 µM (inactive)	> 100 µM (inactive)	> 100 µM (inactive)	> 100 µM (inactive)	> 100 µM (inactive)	> 100 µM (inactive)	> 100 µM (inactive)	> 100 µM (inactive)	> 100 µM (inactive)	> 100 µM (inactive)	> 100 µM (inactive)	> 100 µM (inactive)	> 100 µM (inactive)
OC(CNc1ccccn1)c1ccccc1 (stereo not given) [PHENYRAMIDOL HYDROCHLORIDE]	> 100 µM (inactive)	> 100 µM (inactive)	> 100 µM (inactive)	> 100 µM (inactive)	90.2 µM (inactive)	> 100 µM (inactive)	> 100 µM (inactive)	67.6 µM (inactive)	> 100 µM (inactive)	> 100 µM (inactive)	> 100 µM (inactive)	> 100 µM (inactive)	> 100 µM (inactive)	> 100 µM (inactive)	> 100 µM (inactive)	> 100 µM (inactive)	> 100 µM (inactive)	> 100 µM (inactive)	> 100 µM (inactive)	> 100 µM (inactive)
